Reference: patent US9744221B2, “Method and compositions for inhibiting or preventing adverse effects of oral antibiotics” (Synthetic Biologics, Inc., priority 2014, dated 2017)

Key:
[1] = tested on: intestinal microbiome; experiment: Fecal microbiome whole genome shotgun sequencing in piglets given oral amoxicillin with or without SYN-004 (Example 1); type: in vivo, Yorkshire piglets; conditions: Day -7 to Day 9, FIGS. 3 and 4
Procedure: A study was performed using normal piglets to determine if SYN-004, when delivered orally with oral amoxicillin, functions to protect the microbiome from amoxicillin-induced dysbiosis.
A total of ten, two-month old Yorkshire piglets, approximately 20 kg each, were used for this study. All 10 animals were treated with oral amoxicillin twice a day for a total of 7 days, and one cohort of 5 animals was also treated with oral SYN-004 four times a day for a total of 9 days.
Two pre-treatment fecal samples were obtained, the first 4 days after the animals arrived at the animal treatment facility (Day −7), and the second 7 days after arrival (Day −4). An additional 3 fecal samples were collected at Day 4, Day 8, and Day 9. […]
DNA was isolated from the fecal samples and subjected to whole genome shotgun sequencing using an Illumina HiSeq system with a target of 20 million 100 bp single reads per sample. […]
The median similarity based on the relative bacterial strain abundance was calculated.
A statistical analysis was performed to determine the probability that the microbiomes before and after antibiotic treatment remained the same or were different. The microbiome sequence data were analyzed using a parameterization of the Dirichlet-Multinomial distribution (La Rosa et al., 2012) to perform a Likelihood Ratio Test.

[2] = in vivo; conditions: Yorkshire, pig, po, 20 mg/kg
Procedure: A total of ten, two-month old Yorkshire piglets, approximately 20 kg each, were used for this study. All 10 animals were treated with oral amoxicillin twice a day for a total of 7 days, and one cohort of 5 animals was also treated with oral SYN-004 four times a day for a total of 9 days. The SYN-004 treatment was started the day before amoxicillin treatment and continued for a day after amoxicillin was stopped (FIG. 1).
On Study Day 0, Group 2 (Pigs 6-10) received one size 0 capsule of SYN-004; containing 75 mg of SYN-004, orally, four times a day at 7 am, 12 pm, 5 pm, and 10 pm for a total of 9 days. Pigs were fed 3 times a day, after SYN-004 dosing at 7 am, after SYN-004 dosing at 12 pm, and after SYN-004 dosing at 5 pm. Beginning on Study Day 1, Groups 1 and 2 (Pigs 1-10) received oral amoxicillin (fruit flavored oral suspension, Sandoz, NDC: 0781-6157-46, Lot #EY9130; 20 mg/kg) twice a day at 7 am and at 5 pm, for a total of 7 days. Animals received the amoxicillin first, followed by the SYN-004, then feeding.
On Day 2, after 4 amoxicillin doses, animals were bled and serum collected. Blood was collected aseptically from the vena cava from anesthetized animals. Three blood draws were performed, at 1 hr, 3 hrs, and 8 hrs after amoxicillin administration. A Telazol cocktail was administered intramuscularly at a minimal dose (1 mL or less per 50 lbs) to achieve light anesthesia/sedations. At each timepoint, approximately 9 mL of blood was collected into a serum separator vacutainer tube.
Amoxicillin levels in the pig serum were quantified using a modification of a validated HPLC-based assay (Du et al., 2005). […] The assay was linear over a range of 1 to 30 ug/mL (R=0.999). Interday coefficients of variation for the low (1.5 ug/mL) and high (20 ug/mL) quality control samples were 3.9% and 4.9% respectively. Interday coefficients of variation were 3.8% and 2.8%, respectively. Peak height was used to integrate all the peaks. Sigma Plot was used to calculate drug concentrations and a −1 weighting factor was used. […]

CC1(C)S[C@@H]2[C@H](NC(=O)[C@H](N)c3ccc(O)cc3)C(=O)N2[C@H]1C(=O)O [amoxicillin, Amoxicillin]
diversity of the microbiome (median percent similarity of strain relative abundance) [1]: continued to lose diversity throughout the duration of the study
concentration at 1 h [2]: 8900 ± 800 ng/mL
concentration at 3 h [2]: 3900 ± 300 ng/mL
concentration at 8 h [2]: 1500 ± 300 ng/mL
